Results taken from US6831190B1, “Guanidinomethyl cyclohexane carboxylic acid ester derivatives” (Teikoku Chemical Industries Co., Ltd., priority 1994, dated 2004).
≈ marks a conversion by molar mass, not a printed value. Like-named read-outs stand apart in the source and are kept apart here.

How the values were obtained:
Assay type in all cases: cell-based
[1] = test system: Helicobacter pylori ATCC 43504; assay: MIC, agar plating dilution (standard method of Japanese Chemotherapy Academy)
Procedure: (§1) 1. Minimum Inhibitory Concentration (MIC) was measured in accordance with the standard method of Japanese Chemotherapy Academy (Chemotherapy, 29: 76-79, 1981). Sensitivity was measured with an agar plating dilution using Brain-Heart Infusion agar (Difco Co.) which was added 0.1% of cyclodextrin. […] of the solutions of the compounds which were obtained in examples of the present invention was prepared by dissolving in dimethylsulfoxide. […] Each of 1 ml of those prepared solutions was dispensed in share, after sterilization, 9 ml of sensitivity measuring medium which is kept at 50° C. was added to each, and they were sufficiently mixed. The mixture was used as a plate for measuring sensitivity. Brain Heart Infusion agar medium (Difco Co.), which was added 0.1% of cyclodextrin, was used as bacteria growing medium, and was cultured under microair at 37° C. for three days, and the number of bacteria thereof was adjusted to about 106/ml. This was used as a bacterial solution for inoculation. The medium was painted in each square about 2 cm with nichromic line loop. The medium was cultured under microair for three days at 37° C.

[2] = test system: Helicobacter pylori ATCC 43629; assay: as above
Procedure: as §1

[3] = test system: Helicobacter pylori No. 1; assay: MIC, agar plating dilution, clinical segregation strain
Procedure: (§2) Minimum Inhibitory Concentration (MIC) was measured in accordance with the standard method of Japanese Chemotherapy Academy (Chemotherapy, 29: 76-79, 1981). Sensitivity was measured with an agar plating dilution using Brain-Heart Infusion agar (Difco Co.) which was added 0.1% of cyclodextrin. […] of the solutions of the compounds which were obtained in examples of the present invention was prepared by dissolving in dimethylsulfoxide. […] Each of 1 ml of those prepared solutions was dispensed in share, after sterilization, 9 ml of sensitivity measuring medium which is kept at 50° C. was added to each, and they were sufficiently mixed. The mixture was used as a plate for measuring sensitivity. Brain Heart Infusion agar medium (Difco Co.), which was added 0.1% of cyclodextrin, was used as bacteria growing medium, and was cultured under microair at 37° C. for three days, and the number of bacteria thereof was adjusted to about 106/ml. This was used as a bacterial solution for inoculation. The medium was painted in each square about 2 cm with nichromic line loop. The medium was cultured under microair for three days at 37° C. […] The each result is shown at Table 4.

[4] = test system: Helicobacter pylori No. 28; assay: as above
Procedure: as §2

[5] = test system: Helicobacter pylori No. 2; assay: as above
Procedure: as §2

[6] = test system: Helicobacter pylori No. 4; assay: as above
Procedure: as §2

[7] = test system: Helicobacter pylori No. 3; assay: as above
Procedure: as §2

[8] = test system: Helicobacter pylori No. 19; assay: as above
Procedure: as §2

[9] = test system: Helicobacter pylori No. 20; assay: as above
Procedure: as §2

[10] = test system: Staphylococcus aureus 209PJC; assay: MIC, standard method of Japanese Chemotherapy Academy; conditions: Strain 11: Staphylococcus aureus 209PJC
Procedure: (§3) 1. Minimum Inhibitory Concentration (MIC) was measured in accordance with the standard method of Japanese Chemotherapy Academy (Chemotherapy, 29: 76-79, 1981).
(§4) And MIC of the compounds of Example 3, 36, 8, 14, 17, 21, 41 and 45 were measured.

[11] = test system: Staphylococcus aureus ATCC 6538; assay: as above; conditions: Strain 12: Staphylococcus aureus ATCC 6538
Procedure: as §3, §4

[12] = test system: Bacillus subtilis ATCC 6633; assay: as above; conditions: for MIC: Strain 13: Bacillus subtilis ATCC 6633; for MIC against bacillus subcillus ATCC 6633: standard method of Japanese Chemotherapy Academy
Procedure: as §3, §4

[13] = test system: Staphylococcus aureus No. 2 (MRSA); assay: as above; conditions: Strain 14: Staphylococcus aureus No. 2 (MRSA)
Procedure: as §3, §4

[14] = test system: Escherichia coli NIH JC-2; assay: as above; conditions: Objected Strain 3: Escherichia coli NIH JC-2
Procedure: as §3

[15] = Objected Strain 1: Helicobacter pylori ATCC 43504
[16] = Objected Strain 2: Helicobacter pylori ATCC 43629
[17] = Strain 4: Helicobacter pylori No. 1
[18] = Strain 5: Helicobacter pylori No. 2
[19] = Strain 7: Helicobacter pylori No. 4
[20] = Strain 6: Helicobacter pylori No. 3
[21] = Strain 10: Helicobacter pylori No. 28
[22] = Strain 8: Helicobacter pylori No. 19
[23] = Strain 9: Helicobacter pylori No. 20

Compound | MIC [1, 15] | MIC [2, 16] | MIC [3, 17] | MIC [5, 18] | MIC [6, 19] | MIC [7, 20] | MIC [14] | MIC [10] | MIC [11] | MIC [12] | MIC against bacillus subcillus ATCC 6633 [12] | MIC [13] | MIC [4, 21] | MIC [8, 22] | MIC [9, 23] | other results
CC1(C)S[C@@H]2[C@H](NC(=O)[C@H](N)c3ccc(O)cc3)C(=O)N2[C@H]1C(=O)O [Amoxicillin, amoxicillin, reference compound] |  |  |  |  |  |  |  |  |  |  |  |  |  |  |  | MIC ([1]; ATCC43504, Objected Strain 1: Helicobacter pylori ATCC 43504, read-out: MIC): 0.05 µg/mL (≈ 0.137 µM); MIC ([2]; ATCC43629, Objected Strain 2: Helicobacter pylori ATCC 43629, read-out: MIC): 0.025 µg/mL (≈ 0.0684 µM); MIC ([3]; Strain 4: Helicobacter pylori No. 1, read-out: MIC): 0.1 µg/mL (≈ 0.274 µM); MIC ([4]; Strain 10: Helicobacter pylori No. 28, read-out: MIC): 0.05 µg/mL (≈ 0.137 µM); MIC ([5]; Strain 5: Helicobacter pylori No. 2, read-out: MIC): 0.1 µg/mL (≈ 0.274 µM); MIC ([6]; Strain 7: Helicobacter pylori No. 4, read-out: MIC): 0.05 µg/mL (≈ 0.137 µM); MIC ([7]; Strain 6: Helicobacter pylori No. 3, read-out: MIC): 0.025 µg/mL (≈ 0.0684 µM); MIC ([8]; Strain 8: Helicobacter pylori No. 19, read-out: MIC): 0.025 µg/mL (≈ 0.0684 µM); MIC ([9]; Strain 9: Helicobacter pylori No. 20, read-out: MIC): 0.025 µg/mL (≈ 0.0684 µM); MIC ([10]; read-out: MIC): 0.1 µg/mL (≈ 0.274 µM); MIC ([11]; ATCC6538, read-out: MIC): 0.05 µg/mL (≈ 0.137 µM); MIC ([12]; ATCC6633, read-out: MIC): 0.05 µg/mL (≈ 0.137 µM); MIC ([13]; read-out: MIC): 0.2 µg/mL (≈ 0.547 µM)
Cl.N=C(N)NC[C@H]1CC[C@H](C(=O)Oc2ccc(-c3ccc(C(=O)OCc4ccccc4)cc3)cc2)CC1 [Example 3, trans-4-guanidinomethyl cyclohexane carboxylic acid [4-(4-benzyloxycarbonylphenyl)phenylester].hydrochloride] | 0.78 µg/mL | 0.39 µg/mL | 0.20 µg/mL | 0.39 µg/mL | 0.39 µg/mL | 0.10 µg/mL | >25 µg/mL | 3.13 µg/mL | 6.25 µg/mL | 25 µg/mL | > 25 µg/mL | 3.13 µg/mL |  |  |  | 
CC(C)(C)c1ccc(COC(=O)c2ccc(-c3ccc(OC(=O)[C@H]4CC[C@H](CNC(=N)N)CC4)cc3)cc2)cc1.Cl [Example 17, trans-4-guanidinomethyl cyclohexane carboxylic acid [4-[4-(4-t-butylbenzyloxy carbonyl)phenyl]phenylester].hydrochloride] | 0.78 µg/mL | 0.39 µg/mL | 0.20 µg/mL | 0.39 µg/mL | 0.20 µg/mL | 0.20 µg/mL | >25 µg/mL | >25 µg/mL | >25 µg/mL | >25 µg/mL | > 25 µg/mL | >25 µg/mL |  |  |  | 
Cl.N=C(N)NC[C@H]1CC[C@H](C(=O)Oc2ccc(-c3ccc(C(=O)OCc4ccc(C(F)(F)F)cc4)cc3)cc2)CC1 [Example 21, trans-4-guanidinomethyl cyclohexane carboxylic acid [4-[4-(4-trifuluoromethyl benzyloxycarbonyl)phenyl]phenylester].hydrochloride] | 0.39 µg/mL | 0.78 µg/mL | 0.20 µg/mL | 0.39 µg/mL | 0.39 µg/mL | 0.10 µg/mL | >25 µg/mL | 25 µg/mL | >25 µg/mL | >25 µg/mL | > 25 µg/mL | >25 µg/mL |  |  |  | 
Cl.N=C(N)NC[C@H]1CC[C@H](C(=O)Oc2ccc(-c3ccc(C(=O)OCCc4ccc(Cl)cc4)cc3)cc2)CC1 [Example 45, trans-4-guanidinomethyl cyclohexane carboxylic acid[4-[4-[2-(4-chlorophenyl)ethyloxycarbonyl)phenyl]phenylester].hydrochloride] | 0.39 µg/mL | 0.39 µg/mL | 0.39 µg/mL | 0.39 µg/mL | 3.13 µg/mL | 0.39 µg/mL | >25 µg/mL | >25 µg/mL | >25 µg/mL | >25 µg/mL |  | >25 µg/mL | 0.39 µg/mL | 0.20 µg/mL | 0.20 µg/mL | 
Cc1ccc(CCOC(=O)c2ccc(-c3ccc(OC(=O)[C@H]4CC[C@H](CNC(=N)N)CC4)cc3)cc2)cc1.Cl [Example 46, trans-4-guanidinomethyl cyclohexane carboxylic acid[4-[4-[2-(4-methylphenyl)ethyloxycarbonyl)phenyl]phenylester].hydrochloride] | 0.78 µg/mL | 0.78 µg/mL | 0.39 µg/mL | 0.39 µg/mL | 3.13 µg/mL | 0.20 µg/mL | >25 µg/mL |  |  |  |  |  | 0.39 µg/mL | 0.39 µg/mL | 0.20 µg/mL | 

Continued, in another order:

MIC [1, 15] | MIC [2, 16] | MIC [3, 17] | MIC [5, 18] | MIC [6, 19] | MIC [7, 20] | MIC [14] | MIC [10] | MIC [11] | MIC [12] | MIC against bacillus subcillus ATCC 6633 [12] | MIC [13] | MIC [4, 21] | MIC [8, 22] | MIC [9, 23] | Compound | other results
0.78 µg/mL | 0.39 µg/mL | 0.10 µg/mL | 0.39 µg/mL | 0.39 µg/mL | 0.10 µg/mL | >25 µg/mL | 0.78 µg/mL | 1.56 µg/mL | 6.25 µg/mL |  | 1.56 µg/mL | 0.39 µg/mL | 0.20 µg/mL | 0.39 µg/mL | Cl.N=C(N)NC[C@H]1CC[C@H](C(=O)Oc2ccc(-c3ccc(Cl)cc3)cc2)CC1 [Example 8, trans-4-guanidinomethyl cyclohexane carboxylic acid [4-(4-chlorophenyl)phenylester].hydrochloride] | 
0.20 µg/mL | 0.39 µg/mL | 0.20 µg/mL | 0.20 µg/mL | 0.78 µg/mL | 0.20 µg/mL | >25 µg/mL |  |  |  |  |  | 0.39 µg/mL | 0.10 µg/mL | 0.39 µg/mL | Cc1ccccc1COC(=O)c1ccc(-c2ccc(OC(=O)[C@H]3CC[C@H](CNC(=N)N)CC3)cc2)cc1.Cl [Example 43, trans-4-guanidinomethyl cyclohexane carboxylic acid[4-[4-(2-methylbenzyloxycarbonyl)phenyl]phenylester].hydrochloride] | 
0.20 µg/mL | 0.20 µg/mL | 0.39 µg/mL | 0.39 µg/mL | 0.78 µg/mL | 0.20 µg/mL | >25 µg/mL |  |  |  |  |  | 0.39 µg/mL | 0.20 µg/mL | 0.20 µg/mL | Cc1cccc(COC(=O)c2ccc(-c3ccc(OC(=O)[C@H]4CC[C@H](CNC(=N)N)CC4)cc3)cc2)c1.Cl [Example 44, trans-4-guanidinomethyl cyclohexane carboxylic acid[4-[4-(3-methylbenzyloxycarbonyl)phenyl]phenylester].hydrochloride] | 
0.78 µg/mL (≈ 2.16 µM) | 0.78 µg/mL (≈ 2.16 µM) | 0.78 µg/mL (≈ 2.16 µM) | 12.5 µg/mL (≈ 34.6 µM) | 0.78 µg/mL (≈ 2.16 µM) | 25.0 µg/mL (≈ 69.2 µM) | 0.10 µg/mL (≈ 0.277 µM) | 0.39 µg/mL (≈ 1.08 µM) | 0.10 µg/mL (≈ 0.277 µM) | 0.10 µg/mL (≈ 0.277 µM) |  | 12.5 µg/mL (≈ 34.6 µM) | 1.56 µg/mL (≈ 4.32 µM) | 0.78 µg/mL (≈ 2.16 µM) | 0.78 µg/mL (≈ 2.16 µM) | CC1COc2c(N3CCN(C)CC3)c(F)cc3c(=O)c(C(=O)O)cn1c23 (stereo not shown) [Ophroxacine, ophroxacine, reference compound] | 
